Consider seven molecules from patent US20230043863A1, “HETEROAROMATIC DERIVATIVES FOR USE AS REGULATOR, PREPARATION METHOD THEREFOR AND USE THEREOF” (JIANGSU HANSOH PHARMACEUTICAL GROUP CO., LTD., priority 2018, published 2023).

Each structure is given as a SMILES string. Read-outs that look alike come from different tables or passages of the source.

The target of one data set is JAK1 (Homo sapiens, UniProt P23458). The data set can be described thus: JAK kinase activity inhibition, TR-FRET (JAK1). Particulars: TR-FRET kinase assay. In kind it is biochemical. The method in brief: (§1)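 Recombinant kinase at 0.1-20 nM, peptide substrate, ATP; room temperature, 0.5-5 h; EDTA stop, labeled-antibody TR-FRET readout; IC50 by curve fit.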
JAK1, sequence (P23458 whole entry): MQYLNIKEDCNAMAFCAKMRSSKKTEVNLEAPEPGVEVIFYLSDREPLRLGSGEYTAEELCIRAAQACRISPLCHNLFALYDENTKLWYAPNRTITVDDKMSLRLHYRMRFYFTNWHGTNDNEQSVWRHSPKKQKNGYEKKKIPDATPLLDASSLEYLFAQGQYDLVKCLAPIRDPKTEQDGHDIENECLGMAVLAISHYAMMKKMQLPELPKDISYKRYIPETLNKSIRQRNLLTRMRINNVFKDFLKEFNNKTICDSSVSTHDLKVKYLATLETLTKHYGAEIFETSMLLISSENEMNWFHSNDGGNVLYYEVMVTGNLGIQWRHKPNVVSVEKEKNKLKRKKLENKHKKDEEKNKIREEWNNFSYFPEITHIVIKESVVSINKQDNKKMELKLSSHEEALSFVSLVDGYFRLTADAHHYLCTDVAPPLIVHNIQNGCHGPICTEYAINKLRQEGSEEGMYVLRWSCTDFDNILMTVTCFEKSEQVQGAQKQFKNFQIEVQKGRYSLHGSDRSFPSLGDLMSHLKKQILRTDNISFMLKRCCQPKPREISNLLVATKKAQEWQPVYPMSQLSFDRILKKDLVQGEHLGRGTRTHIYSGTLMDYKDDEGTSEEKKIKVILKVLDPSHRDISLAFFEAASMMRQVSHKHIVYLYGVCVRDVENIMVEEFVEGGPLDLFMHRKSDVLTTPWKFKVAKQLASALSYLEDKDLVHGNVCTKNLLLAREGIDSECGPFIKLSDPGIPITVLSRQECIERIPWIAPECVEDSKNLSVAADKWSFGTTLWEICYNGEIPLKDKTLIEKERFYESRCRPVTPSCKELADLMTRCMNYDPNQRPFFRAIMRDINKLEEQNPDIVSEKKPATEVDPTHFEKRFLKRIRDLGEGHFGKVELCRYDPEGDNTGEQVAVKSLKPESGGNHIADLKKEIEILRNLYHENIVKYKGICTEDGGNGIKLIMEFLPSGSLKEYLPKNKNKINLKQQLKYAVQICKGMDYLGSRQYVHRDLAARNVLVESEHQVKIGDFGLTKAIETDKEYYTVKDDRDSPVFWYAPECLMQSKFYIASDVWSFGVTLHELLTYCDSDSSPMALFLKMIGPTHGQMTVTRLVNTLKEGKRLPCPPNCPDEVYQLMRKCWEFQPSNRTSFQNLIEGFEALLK
For a further data set, the target named is JAK2 (Homo sapiens, UniProt O60674). As to the kind of experiment: JAK kinase activity inhibition, TR-FRET (JAK2). The format is biochemical. The conditions noted are these: TR-FRET kinase assay. The method in brief:
as §1
In general terms: TR-FRET usually uses a lanthanide donor and a delayed reading to cut background.

Another data set has as its target TYK2 (Homo sapiens, UniProt P29597). As to the kind of experiment: JAK kinase activity inhibition, TR-FRET (TYK2). The conditions noted are these: TR-FRET kinase assay. The format is biochemical. The method in brief: as §1
Data set [1] is described as follows: Balb/C mouse pharmacokinetics (plasma, colon, ileum). In kind it is in vivo. The conditions noted are these: male, po, Balb/C mice, p.o. 5 mg/kg; for Cmax: read-out: Blood concentration Cmax; for AUC(0-t): read-out: Curve area AUC0-t; for MRT: read-out: Mean detention time MRT; for Tmax: read-out: Time to peak tmax; for AUC(0-inf): read-out: Curve area AUC0-∞; for half-life: read-out: Half life period t1/2 (converted). The gist of the method: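 Male Balb/C mice (12 per group), fasted overnight, given 5 mg/kg p.o.; plasma, ileum and colon sampled at 0–7 h. Drug levels by LC/MS/MS, […]; parameters include colon/ileum and colon/plasma concentration ratios.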

TYK2, sequence (P29597 whole entry): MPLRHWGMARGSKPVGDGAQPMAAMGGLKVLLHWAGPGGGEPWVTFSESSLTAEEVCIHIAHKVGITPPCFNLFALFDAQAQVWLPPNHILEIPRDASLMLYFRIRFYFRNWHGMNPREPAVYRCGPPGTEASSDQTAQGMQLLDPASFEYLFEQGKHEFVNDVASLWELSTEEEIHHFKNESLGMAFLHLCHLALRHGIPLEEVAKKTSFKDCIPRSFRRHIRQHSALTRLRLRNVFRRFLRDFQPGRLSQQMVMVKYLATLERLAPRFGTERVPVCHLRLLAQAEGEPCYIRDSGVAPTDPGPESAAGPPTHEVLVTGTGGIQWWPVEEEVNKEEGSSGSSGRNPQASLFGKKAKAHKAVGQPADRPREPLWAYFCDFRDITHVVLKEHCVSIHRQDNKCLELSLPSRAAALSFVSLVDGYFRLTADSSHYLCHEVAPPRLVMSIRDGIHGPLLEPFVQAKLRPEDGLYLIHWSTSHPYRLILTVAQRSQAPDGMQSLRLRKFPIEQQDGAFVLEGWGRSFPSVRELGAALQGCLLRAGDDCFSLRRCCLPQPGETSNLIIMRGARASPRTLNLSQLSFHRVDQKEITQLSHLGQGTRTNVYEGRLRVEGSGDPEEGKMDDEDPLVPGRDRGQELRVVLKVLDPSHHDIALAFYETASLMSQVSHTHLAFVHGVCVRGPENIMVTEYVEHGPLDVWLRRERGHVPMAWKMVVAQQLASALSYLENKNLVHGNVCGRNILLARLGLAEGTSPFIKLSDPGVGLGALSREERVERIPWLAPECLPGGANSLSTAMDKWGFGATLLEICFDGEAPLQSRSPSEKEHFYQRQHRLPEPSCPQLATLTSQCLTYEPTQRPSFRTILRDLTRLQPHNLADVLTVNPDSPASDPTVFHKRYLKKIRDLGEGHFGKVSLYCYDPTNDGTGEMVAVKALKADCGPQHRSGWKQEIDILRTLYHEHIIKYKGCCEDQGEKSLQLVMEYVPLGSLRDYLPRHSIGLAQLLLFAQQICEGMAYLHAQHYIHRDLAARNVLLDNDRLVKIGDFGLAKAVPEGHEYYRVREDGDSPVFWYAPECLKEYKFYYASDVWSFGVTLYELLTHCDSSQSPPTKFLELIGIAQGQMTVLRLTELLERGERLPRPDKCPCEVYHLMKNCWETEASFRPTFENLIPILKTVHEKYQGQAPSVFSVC
JAK2, sequence (O60674 whole entry): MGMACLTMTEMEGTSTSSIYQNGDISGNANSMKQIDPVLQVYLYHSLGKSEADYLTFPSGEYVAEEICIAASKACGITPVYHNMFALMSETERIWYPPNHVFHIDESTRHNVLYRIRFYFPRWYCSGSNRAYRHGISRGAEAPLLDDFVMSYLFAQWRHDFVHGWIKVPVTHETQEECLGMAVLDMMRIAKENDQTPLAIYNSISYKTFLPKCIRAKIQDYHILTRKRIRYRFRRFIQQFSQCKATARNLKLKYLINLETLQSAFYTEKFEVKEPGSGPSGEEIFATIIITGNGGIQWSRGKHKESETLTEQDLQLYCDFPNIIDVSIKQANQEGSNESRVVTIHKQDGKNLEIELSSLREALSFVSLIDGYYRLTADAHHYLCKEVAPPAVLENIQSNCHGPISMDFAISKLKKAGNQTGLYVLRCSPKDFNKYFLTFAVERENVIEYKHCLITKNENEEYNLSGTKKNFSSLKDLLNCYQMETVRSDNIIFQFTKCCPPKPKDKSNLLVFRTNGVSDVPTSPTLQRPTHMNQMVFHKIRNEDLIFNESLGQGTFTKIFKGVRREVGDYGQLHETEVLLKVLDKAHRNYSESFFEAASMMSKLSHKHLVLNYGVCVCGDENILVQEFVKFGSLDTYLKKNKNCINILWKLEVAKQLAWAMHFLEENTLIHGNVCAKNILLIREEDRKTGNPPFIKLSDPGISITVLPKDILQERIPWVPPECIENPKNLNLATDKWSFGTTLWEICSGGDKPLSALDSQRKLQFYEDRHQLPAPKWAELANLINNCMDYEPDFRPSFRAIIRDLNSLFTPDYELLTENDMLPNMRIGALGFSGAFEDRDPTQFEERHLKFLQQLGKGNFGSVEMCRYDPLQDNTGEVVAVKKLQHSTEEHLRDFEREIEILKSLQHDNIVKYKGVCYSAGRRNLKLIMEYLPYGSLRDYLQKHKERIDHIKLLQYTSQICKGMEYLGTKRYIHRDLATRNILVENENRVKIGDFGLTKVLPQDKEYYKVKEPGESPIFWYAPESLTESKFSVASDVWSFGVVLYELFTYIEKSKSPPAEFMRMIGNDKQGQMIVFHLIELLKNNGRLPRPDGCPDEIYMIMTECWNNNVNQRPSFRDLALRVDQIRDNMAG

As to `CNCC(=O)N1[C@@H]2CCC[C@H]1C[C@H](Nc1nc(Nc3cc(C)[nH]n3)c3ccsc3n1)C2` [Embodiment 247, 1-((3-exo)-3-((4-((5-methyl-1H-pyrazol-3-yl)amino)thieno[2,3-d]pyrimidin-2-yl)amino)-9-azabicyclo[3.3.1]non-9-yl)-2-(methylamino)-ethane-1-one], the IC50 (usually the concentration that gives 50% inhibition) on JAK1 turned out to be 0.1 nM. Also, the IC50 on JAK2 is 0.73 nM. Moreover, on TYK2, the IC50 is 0.12 nM. In addition, in data set [1] (colon), the Cmax stood at 2270 ng/mL, the AUC(0-t) came to 10200 ng·h/mL, the MRT (commonly the average time that molecules of a dose stay in the body) amounted to 4.05 h and the Tmax (usually the time at which the peak concentration occurs) came out at 3 h. Moreover, in data set [1] (ileum), the Cmax was found to be 13800 ng/mL, the AUC(0-t) is 24700 ng·h/mL, the AUC(0-inf) is 24900 ng·h/mL and the half-life was 0.92 h. In data set [1] (ileum), the MRT came to 1.39 h and the Tmax came to 1 h.
For the molecule `Cc1cc(Nc2nc(N[C@@H]3C[C@H]4CC[C@@H](C3)N4S(=O)(=O)N3CC(C#N)C3)nc3cc(Cl)ccc23)n[nH]1` [Embodiment 214], the IC50 at JAK1 was determined as 0.35 nM. Moreover, on JAK2, the half-maximal inhibitory concentration (IC50) is 0.82 nM. The IC50 at TYK2 was 0.455 nM. In addition, in data set [1] (plasma, blood), the Cmax is 1.6 ng/mL, the AUC(0-t) came out at 3.59 ng·h/mL, the mean residence time MRT came to 1.82 h and the time of peak concentration (Tmax) is 3 h. Also, in data set [1] (colon), the Cmax worked out at 5590 ng/mL, the AUC(0-t) was determined as 19500 ng·h/mL, the MRT turned out to be 4.4 h and the Tmax amounted to 5 h. Also, in data set [1] (ileum), the Cmax was found to be 24800 ng/mL, the AUC(0-t) stood at 49300 ng·h/mL, the AUC(0-inf) worked out at 49500 ng·h/mL and the half-life is 0.79 h. Besides, in data set [1] (ileum), the MRT is 1.52 h and the Tmax was found to be 1 h.
Regarding `Cc1cc(Nc2nc(N[C@@H]3C[C@H]4CC[C@@H](C3)N4S(=O)(=O)N3CC(C#N)C3)nc3ccccc23)n[nH]1` [Embodiment 213, 1-(((3-exo)-3-((4-((5-methyl-1H-pyrazol-3-yl)amino)quinazolin-2-yl)amino)-8-azabicyclo[3.2.1]oct-8-yl)sulfonyl)azetindin-3-formonitrile], the IC50 at JAK1 came out at 0.2 nM; on JAK2 it was 0.3 nM; on TYK2 it was 0.46 nM. In addition, the Cmax in data set [1] (plasma, blood) worked out at 9.69 ng/mL; in data set [1] (colon), 1750 ng/mL; in data set [1] (ileum) it was 321 ng/mL. Further, the AUC(0-t) was 7.37 ng·h/mL in data set [1] (plasma, blood); 4930 ng·h/mL in data set [1] (colon); 1240 ng·h/mL in data set [1] (ileum). The MRT in data set [1] (plasma, blood) is 2.66 h; in data set [1] (colon), 4.92 h; in data set [1] (ileum), 4.26 h. Besides, the Tmax in data set [1] (plasma, blood) was found to be 3 h; in data set [1] (colon) it was 5 h; in data set [1] (ileum), 5 h.
With `Cc1cnc(Nc2cc3ncccc3c(N[C@@H]3C[C@H]4CC[C@@H](C3)N4CCC#N)n2)s1` [Embodiment 1, 3-((3-exo)-3-((7-((5-methylthioazol-2-yl)amino)-1,6-diazanaphthalen-5-yl)amino)-8-azabicyclo[3.2.1]oct-8-yl)propionitrile], on JAK1, the concentration for half-maximal inhibition (IC50) was 0.34 nM. Moreover, the IC50 at JAK2 amounted to 0.69 nM. Further, on TYK2, the IC50 came out at 0.55 nM. Moreover, in data set [1] (plasma, blood), the Cmax was determined as 25.6 ng/mL, the AUC(0-t) turned out to be 58.1 ng·h/mL, the AUC(0-inf) came out at 61.5 ng·h/mL and the half-life was 1.75 h. In addition, in data set [1] (plasma, blood), the MRT was 2.03 h and the Tmax came to 0.5 h. Also, in data set [1] (colon), the Cmax amounted to 2720 ng/mL, the AUC(0-t) is 8320 ng·h/mL, the MRT worked out at 3.68 h and the time to peak (Tmax) is 3 h. In data set [1] (ileum), the Cmax stood at 27100 ng/mL, the AUC(0-t) was 90500 ng·h/mL, the AUC(0-inf) turned out to be 93700 ng·h/mL and the half-life was 1.08 h. Also, in data set [1] (ileum), the MRT came out at 2.84 h and the Tmax came to 3 h.
On to `Cc1cc(Nc2nc(N[C@@H]3C[C@H]4CCC[C@@H](C3)N4CCC#N)nc3scnc23)n[nH]1` [Embodiment 278, 3-((3-exo)-3-((7-((5-methyl-1H-pyrazol-3-yl)amino)thiazolo[5,4-d]pyrimidin-5-yl)amino)-9-azabicyclo[3.3.1]non-9-yl)propionitrile], for which the IC50 at JAK1 is 0.71 nM. The IC50 at JAK2 turned out to be 1.34 nM. Moreover, the IC50 on TYK2 was 0.98 nM. Also, in data set [1] (plasma, blood), the Cmax was found to be 1.79 ng/mL, the AUC(0-t) is 3.62 ng·h/mL, the MRT turned out to be 1.5 h and the Tmax amounted to 0.5 h. In addition, in data set [1] (colon), the Cmax is 1300 ng/mL, the AUC(0-t) amounted to 4640 ng·h/mL, the MRT stood at 4.26 h and the time to peak (Tmax) stood at 5 h. Also, in data set [1] (ileum), the Cmax stood at 3700 ng/mL, the AUC(0-t) stood at 6240 ng·h/mL, the AUC(0-inf) is 6260 ng·h/mL and the half-life was 0.95 h. In data set [1] (ileum), the MRT was 1.28 h and the Tmax amounted to 1 h.
As for `Cc1cc(Nc2nc(N[C@@H]3C[C@H]4CCC[C@@H](C3)N4S(=O)(=O)N3CC(C#N)C3)nc3sccc23)n[nH]1` [Embodiment 238], the IC50 on JAK1 stood at 0.03 nM. Further, the half-maximal inhibitory concentration (IC50) on JAK2 came out at 0.44 nM. Further, the IC50 at TYK2 came out at 0.12 nM. In data set [1] (plasma, blood), the Cmax came to 12.7 ng/mL, the AUC(0-t) was 19.6 ng·h/mL, the mean residence time MRT amounted to 1.47 h and the Tmax is 1 h. In data set [1] (colon), the Cmax came to 1320 ng/mL, the AUC(0-t) is 5270 ng·h/mL, the AUC(0-inf) was 7380 ng·h/mL and the half-life is 2.89 h. Further, in data set [1] (colon), the MRT is 4.16 h and the time of peak concentration (Tmax) came out at 3 h. In addition, in data set [1] (ileum), the Cmax came out at 21000 ng/mL, the AUC(0-t) came out at 36600 ng·h/mL, the AUC(0-inf) was determined as 36600 ng·h/mL and the half-life was 0.58 h. Also, in data set [1] (ileum), the MRT is 1.29 h and the Tmax stood at 1 h.
With `COc1ccc2c(Nc3cc(C)[nH]n3)nc(N[C@@H]3C[C@H]4CC[C@@H](C3)N4CCC#N)nc2c1` [Embodiment 169, 3-((3-exo)-3-((7-methoxyl-4-((5-methyl-1H-pyrazol-3-yl)amino)quinazolin-2-yl)amino)-8-azabicyclo[3.2.1]oct-8-yl)propionitrile], the concentration for half-maximal inhibition (IC50) on JAK1 came out at 0.63 nM; on JAK2, 1.07 nM; on TYK2, 0.5 nM. Besides, the Cmax in data set [1] (plasma, blood) is 2.21 ng/mL; in data set [1] (colon), 9010 ng/mL; in data set [1] (ileum), 23300 ng/mL. Besides, the AUC(0-t) was 3.04 ng·h/mL in data set [1] (plasma, blood); 23200 ng·h/mL in data set [1] (colon); 68900 ng·h/mL in data set [1] (ileum). Moreover, the mean residence time (MRT) in data set [1] (plasma, blood) was 1.08 h; in data set [1] (colon) it was 2.29 h; in data set [1] (ileum) it was 4.64 h. The time to peak (Tmax) in data set [1] (plasma, blood) amounted to 0.5 h; in data set [1] (colon), 5 h; in data set [1] (ileum), 1 h.
